The record followed here is a melting point compilation (Tetko et al.; mined from patent text by program, amines drawn as free bases though some values may be those of a salt).

The structures appear in SMILES notation. Some results are limits rather than exact numbers.

`Cc1ccc(C(=S)C2CCC3C4CCc5cc(C(=O)O)ccc5C4CCC23C)cc1` (stereo not drawn) showed a melting point of 255 to 257 °C.

In turn, `CCCc1c(OCCCCCOc2ccc(C(=O)CCCC(=O)O)cc2CCC(=O)O)ccc2c1OCCC2=O` gave a melting point of 151 to 154 °C. The value for `Cc1ccc(-c2ccc(C(=O)Nc3cc4ncc(CN5CCCC5)cc4cc3C)cc2F)cc1` was 175 to 178 °C; that for `COCC1CN(c2ccc(C3CCC(O)CC3)cc2)C(=O)O1` (racemic) was 109 to 110 °C; that for `CCOC(=O)Cc1ccc(NC(=O)C(COS(C)(=O)=O)NS(=O)(=O)c2ccc(I)cc2)cc1` (racemic) was 160 to 162 °C. For the compound `CSc1cc(C(F)(F)F)ccc1C(=O)CC(=O)C1CC1`, the melting point turned out to be 64 °C. To `CS(=O)(=O)c1ccc(C(=O)Cl)c(Cl)c1-c1nccs1` belongs 97 to 98 °C; to `CC1SC(=O)NN=C1c1cccc(N)c1` (stereo not drawn), 167 to 170 °C. To `CCOC1Cc2cc3ccc(=O)oc3c(OC)c2O1` (stereo not drawn) belongs 119 to 120 °C; to `CNC(=S)N1CCc2ncn(C)c2C1`, 235 °C; to `O=C(Nc1cccc2c1C(=O)c1c-2n[nH]c1-c1ccc(C(=O)NC2CCNCC2)s1)NN1CCOCC1`, 224 to 226 °C. Regarding `CC(=O)c1c(C)[nH]c(CCN)c1C`, the melting point lay within 106 to 108 °C. Compound `O=C(O)c1cc2ncnn2nc1NCCCN1CCC(OC(c2ccccc2)c2ccccc2)CC1` gave a melting point of 207 to 209 °C. For the compound `CCCCNc1nc(N)nc(NCCCC)n1`, the melting point was 73 °C. The compound `COC(=O)c1[nH]c2ccc(OC)cc2c1SC` returned a melting point of 128 to 130 °C. To `O=C(O)C(=O)c1ccc(OCCCc2ccc(F)cc2)cc1` belongs 77 to 78 °C; to `CC(=O)OC1CC2CCC3C(CCC4(C)C3CC(N3CCN(C)CC3)C4OC(C)=O)C2(C)CC1N1CCCCC1` (stereo not drawn), 95 to 98 °C; to `O=C(O)C(O)c1ccc(-n2cccc2)cc1` (stereo not drawn), 168 °C. In the case of `NCc1cccc(OCCSc2nc[nH]n2)c1`, the melting point is greater than 300 °C. Take `CC(C)S(=O)(=O)Nc1ccc(C(=O)Nc2ccc(Br)cc2)cc1`: the melting point is 213 to 214 °C. `O=Cc1ccc(CBr)c2ccccc12` yielded a melting point of 115 to 116 °C. In turn, `COc1ccc(CS(=O)(=O)C(C)(Cc2ccccc2)C(=O)O)cc1` (stereo not drawn) gave a melting point of 58 to 59 °C. In turn, `CC(C)(C)OC(=O)NC(O)CCO` (stereo not drawn) returned a melting point of 83 to 85 °C.

For the compound `O=C(O)c1cccc2ccc(-c3ccccc3)nc12`, the melting point lay within 159 to 161 °C. With `O=[N+]([O-])c1cnccc1NCc1ccc(F)cc1`, the melting point is 137 °C. In the case of `CC(=NOCCc1ccc(C)cc1)C(=O)O`, the melting point fell in the range of 106 to 108 °C.

Regarding `CON(C)C(=O)c1cc(-n2c(=O)cc(C(F)(F)F)n(C)c2=O)c(F)cc1Cl`, the melting point came to 158 °C. In turn, `CC1(C)COC(C)(C)N1C(=O)OCCN(Cc1ccccc1)Cc1ccccc1` registered a melting point of 32 °C. The compound `CCCN1CC(CN2CC(=O)NC2=O)CC2c3cccc4[nH]cc(c34)CC21` (stereo not drawn) yielded a melting point of 168 to 170 °C.

The compound `CC(=O)c1ccc2c(c1)Cc1cccc(C(C)=O)c1-2` had a melting point of 128 to 129 °C. For `O=C1c2ccccc2C(O)N1CCCCSc1ccncc1` (stereo not drawn), the melting point is 144 to 145 °C. To `CCCN[C@H]1CC[C@H](Oc2ccc3[nH]ncc3c2SC)CC1` belongs 168 to 169 °C. As to `CC(C)(C)OC(=O)Nc1scc(C2CC2)c1C(=O)O`, the melting point was in the range of 175 to 176 °C. To `NC(CCc1ccccc1CP(=O)(O)O)C(=O)O` (stereo not drawn) belongs 247 to 249 °C; to `COc1c(N2CCC(NC3CC3)C(C)C2)c(F)cc2c(=O)c(C(=O)O)cn(C3CC3)c12` (stereo not drawn), 182 to 184 °C; to `CCCCn1c(=O)n(CCC)c(=O)c2c3n(nc21)CCCN3C`, 94 to 98 °C. To `NS(=O)(=O)Cc1ccc2oc([N+](=O)[O-])c(-c3ccccc3)c2c1` belongs 203 to 205 °C; to `CCOC(=O)C1CCNC1=O` (stereo not drawn), 74.5 to 75.5 °C. To `Cc1c(-c2ccc(Cl)c(F)c2)sc2nc(N)[nH]c(=O)c12` belongs 350 to 370 °C. `CCCCCCCc1ccc(NC2=NCCS2)cc1` yielded a melting point of 81 to 82 °C. The value for `Cc1nc(-c2ccccc2N)[nH]c1-c1cccnc1` was 221 to 222 °C; that for `CCn1c(-c2ccc(Cl)c(S(=O)(=O)N(C)C)c2)csc1=Nc1ccccc1C` was 164 to 166 °C.

As for `Cc1c(Cl)cccc1S(=O)(=O)Nc1ccc2onc(C)c2c1`, the melting point is 163 °C.

In the case of `COc1ccc(-c2csc(N(C(C)=O)c3cc4ccccc4cn3)n2)cc1OC`, the melting point is 164 to 165 °C. The value for `CCOC(=O)C=Cc1c(N)nc(C)c(NC(C)=O)c1C` was 204 to 205 °C; that for `O=C(NS(=O)(=O)c1c(F)cccc1F)N1CCC=N1` was 183 °C. The value for `Cc1cc(-c2nnnn2C2CC2)ccc1N` was 139 to 140 °C. In turn, `CN(C)CCc1c(CC(C)(C)[N+](=O)[O-])c2ccccc2n1C` displayed a melting point of 87 to 90 °C. `CCCCc1nc2c(N)nc3ccc(OCc4ccccc4)cc3c2n1CCCCNS(=O)(=O)c1ccccc1` had a melting point of 204 to 205 °C. Regarding `CCCn1ncc2c(=O)[nH]c(-c3cc(C(=O)CN4CCOCC4)ccc3OCC)nc21`, the melting point was in the range of 160 to 162 °C. In the case of `CC(=O)NS(=O)(=O)c1ccc2ccc(Oc3c(Cl)cc(C(F)(F)F)cc3Cl)cc2c1`, the melting point is 137 °C. For `COC(=O)C1=C(C)NC(C)=C(C(=O)OCCN2CCN(C(c3ccc(F)cc3)c3ccc(F)cc3)CC2)C1c1ccccc1[N+](=O)[O-]` (stereo not drawn), the melting point lay within 90 to 93 °C. The value for `Fc1ccc(Cn2c(CC3CCN(Cc4ccccc4)CC3)nc3cncnc32)cc1` was 136 °C; that for `O=C=Nc1ccc2c(c1)C(=O)OC2=O` was 80 to 82 °C; that for `CC#CCOc1ccc(C=O)cc1OC` was 90 to 92 °C. To `COC(=O)Nc1ccc(OC(=O)OC)cc1I` belongs 106 °C. As for `CCn1nnc2cc3c(=O)n(C(C)Cn4ncnn4)nnc3cc2c1=O` (stereo not drawn), the melting point lay within 174 to 176 °C. As to `COc1cc2c(cc1Br)-c1c(-c3cccs3)c3c(n1CC2)C(=O)N(C(C)C)CCN(C(=O)C(C)C)C3`, the melting point was 248 to 249 °C. As to `Cn1nc(-c2ccc(OC3CCN(C4CCCC4)CC3)cc2)ccc1=O`, the melting point lay in the range of 129 to 132 °C. For `C=C(C#N)S(=O)(=O)c1ccc(OC(F)(F)C(Cl)Cl)cc1`, the melting point was in the range of 89 to 90 °C. In turn, `Cc1ccccc1C=C1CCc2c1nc1ccc(C(=O)O)cn1c2=O` showed a melting point of 300 to 302 °C.

On to `C[C@H](c1ccccc1)N1C(=O)N[C@@H]2C(=O)OC[C@@H]21`, for which the melting point was 123 to 125 °C. Compound `CC(=O)N(C(=O)OC(C)(C)C)c1ccc(-c2nc3n(Cc4c(F)cccc4F)c(C)c(Cc4ccccc4)c(=O)n3c2C)cc1` yielded a melting point of 176 to 177 °C.

The compound `CCc1cc(OC)cc2nc(-c3cccnc3N3CC[C@H](N(C)C)C3)oc(=O)c12` showed a melting point of 148 to 155 °C.

For the compound `Cc1cc(Cc2cnc(NCCCN(Cc3ccccc3)c3ccccn3)[nH]c2=O)cnc1C`, the melting point lay in the range of 95 to 99 °C. To `N#Cc1cc(Cl)ccc1Oc1cc(N2CCOCC2)c(F)cc1O` belongs 149 to 151 °C.

Take `O=C(O)COc1cccc2c1CC(SCc1ccccc1)c1sc(-c3ccc4ccccc4c3)nc1-2` (stereo not drawn): the melting point was 118 to 121 °C. The value for `Clc1ccc(C2(c3ccccc3)OC2n2ccnc2)c(Cl)c1` (stereo not drawn) was 135 to 137 °C. The value for `O=C(Nc1ccc(Cl)cc1)O[C@@H]1CN=C(c2ccccc2)O[C@H]1c1ccccc1` (racemic) was 124 °C; that for `Cc1c2ccccc2c(-c2ccc(O)cc2)c2c1sc1ccccc12` was 184 to 185 °C; that for `C=CCONc1nc(NC=O)nc(Cl)c1NC=O` was 170 to 181 °C. The compound `Cc1c(Br)c(=O)n(C2CCCCC2)c(=O)n1N=Cc1ccc(Cl)c(Cl)c1` yielded a melting point of 188 to 189 °C.

Take `O=C(Nc1ccncc1)c1ccc(OC(F)F)c2oc3ccc(C(F)(F)F)cc3c12`: the melting point was 228 °C. As to `Cc1cc2c(-c3ccccc3F)c(C(=O)O)oc(=O)c2cc1C`, the melting point is 214 to 217 °C.

On to `CN1CCC(OC2c3cccc(-c4ccc(F)cc4)c3CCn3cc(-c4ccccc4)nc32)CC1` (stereo not drawn), for which the melting point turned out to be 95 °C. Regarding `O=C1c2ccccc2C(=O)N1Oc1ccc([N+](=O)[O-])cc1C(F)(F)F`, the melting point came out at 190 °C. To `O=C(NCc1cc[nH]c(=O)c1)c1nc2ccc(F)c(OCc3ccc(F)cc3)c2c(=O)[nH]1` belongs 248 to 250 °C. Compound `COc1ccc(-c2ccc(C(N)=O)cc2)cc1-c1cccc([N+](=O)[O-])c1` returned a melting point of 201 to 205 °C. Take `Cc1ncnn1-c1cc(F)ccc1CNC(=O)c1nc2n(c(=O)c1OCc1ccccc1)CCN2C(C)C`: the melting point was 158 to 159 °C.

Take `O=c1cc(C(F)(F)F)c2c(O)cc(O)cc2o1`: the melting point was 212 to 214 °C. The value for `Cn1c2cc(Cl)ccc2c2c(CC#N)nn(-c3ccccc3)c(=O)c21` was 305 to 315 °C. Regarding `O[C@@H]1C=CC=C(Cl)[C@@H]1O` (relative stereo), the melting point lay in the range of 95 to 96 °C.

`O=C(O)c1ccc(Cn2cc(C3c4ccc(C(F)(F)F)cc4C=Cc4cc(C(F)(F)F)ccc43)c(=O)[nH]c2=O)o1` had a melting point of 203 to 206 °C. To `O=C(O)CCc1cc2cc(Cl)ccc2n1S(=O)(=O)c1ccc(Cl)cc1` belongs 158 to 160 °C; to `CCCCc1c(C(=O)O)ccc2c(OC)cccc12`, 154 to 155 °C; to `CCOP(=O)(Cc1ccc(NC(=O)/C=C/c2cn[nH]c2-c2ccc(F)cc2)cc1)OCC`, 181 to 182 °C.

The compound `COCc1cc(-c2ncn(-c3cccc(Oc4ccccc4)c3)c2C)on1` came in with a melting point of 83 °C. The compound `COc1ccc(N2CCOCC2)c2sc(-c3nc4ccc(N(C)CC5CCOCC5)nc4[nH]3)nc12` gave a melting point of 190 to 195 °C.
